Test results taken from patent US20250011829A1, “MEMBRANE FOR MICROBIOLOGICAL ANALYSIS” (Sartorius Stedim Biotech GmbH, priority 2021, published 2025).

What was measured:
[1] = ILC; for adsorbed amount of surfactant on the membrane: surfactant concentration 0.1 g/L
[2] = Evaluation of wettability by filtration with activated carbon; format: physicochemical; settings: membrane filters impregnated with 0.1 wt % surfactant; white spots indicate inhomogeneous wetting
Experimental: The wetting ability of membrane filters obtained in Example 1, which were impregnated with 0.1 wt % of each of Tween 80, Triton X100, Brij 35, SDS, and SDBS, was evaluated after filtration with activated carbon. For this purpose, the pieces with a diameter of 4.7 cm were placed with the application side of the membrane pointing upwards on a frit of a filtration unit before cups are attached thereon. All valves of the filtration bar are closed. 0.2 g of activated carbon is suspended in 1 L of RO water and 100 ml of filtration volume is measured after vigorous stirring and filled into the filtration cups. The pump is then switched on and the valves are opened. After filtration, the black filter pieces are placed on a white sheet of paper and photographed. White spots indicate an inhomogeneous wetting pattern (FIG. 1).

L. anisa WDCM 00106 = format: cell-based, Legionella anisa

Row | Substance | adsorbed amount of surfactant on the membrane [1] [μg/cm^2] | adsorbed amount relative to SDBS ([1]; surfactant concentration 1.0 g/L) | wetting pattern after filtration with activated carbon [2] | colony forming units of L. anisa (L. anisa WDCM 00106)
1 | 4-(1,1,3,3-tetramethylbutyl)-phenyl-polyethylene glycol [Triton X-100] | 51.5 | two times higher compared to SDBS | – | –
2 | polyoxyethylene(x)-sorbitan monooleate (x=80) [Tween 80] | – | – | white wetting spots were visible | –
3 | sodium dodecyl benzyl sulfonate [SDBS] | 8.73 | – | – | sharp decrease in colony forming units
